In US6197774A, “Pyrimidine derivative” (Otsuka Pharmaceutical Co., Ltd., priority 1997, dated 2001):

Tests used:
[1] = tested on: formation of NO in cell strain RAW 264.7; test: Activity for inhibiting the formation of NO (LPS-stimulated RAW 264.7 cells, Griess reagent); format: cell-based; conditions: Mus musculus, RAW264.7, 1 × 10^-6 M, LPS 100 ng/ml, 24 hours, read-out: Ratio of formed amount of NO (reference culture medium = 100)
Method: [Evaluation test of activity for inhibiting the formation of NO]
Pharmacological tests of pyrimidine derivatives obtained in Examples 1, 12, 14, 19, 22, 24, 29 and 42 used as test compounds were conducted as follows.
Preparation of culture media and method of cell culture were conducted in accordance with those described in J. Biol. Chem., Vol. 269, No. 1, pp. 711-715, (1994), and determination of formed amount of NO was conducted in accordance with the method described in Anal. Biochem., Vol. 126, pp. 131-138, (1982), respectively.
(1) Cell Culture and Inducible Synthesis of NO in the Cells by Stimulation with Lipopolysaccharide (LPS)
Cell strain RAW 264.7 (ATCC) derived from the macrophage of mouse was placed on each one of the wells on a microplate having 24-wells so as to put the cells in an amount of 1×10^5 cells/U (well). The cells were incubated for 24 hours in a phenol red free-RPMI-1640 culture medium (mfd. by GIBCO) to which 10% of fetal bovine serum, 100 U/ml of penicillin (mfd. by Dainippon Pharmaceutical Co., Ltd.) and 100 μg/ml of streptomycin (mfd. by Dainippon Pharmaceutical Co., Ltd.) were added.
Next, the reference culture medium was prepared by adding 2 mM of L-arginine (mfd. by Wako Pure Chemical Industries, Ltd.), 10 μM/ml of tetrahydrobiopterin (mfd. by ALEXIS) and 100 ng/ml of lipopolysaccharide (LPS)(mfd. by Sigma Chemical Co.) to a phenol red free-RPMI-1640 culture medium. While, the reference culture medium without containing LPS was used as the blanc culture medium.
On the other hand, the test culture medium, containing the test compound was prepared by adding 0.2% of the test compounds dissolved in dimethyl sulfoxide (DMSO) to the reference culture medium to adjust the final concentration of the test compound to 1×10^-6 M.
Each one of the blank culture medium, reference culture medium and test culture medium containing the test compound was added, respectively to the well on the micro-plate where the above-mentioned cell strain RAW 264.7 was placed, and was incubated for 24 hours.
(2) Measurement of the Amount of Formed NO
Quantitative measurement of NO cannot be made directly, due to its unstability. Therefore, the amount of NO is measured indirectly, thus by forming nitrous acid ion (hereunder referred to as NO2^-) which is stable product derived from NO by use of Griess reagent [consisting of 1% of sulfanylamide and 0.1% of sulfuric acid solution containing 0.1% N-(1-naphthyl)ethylenediamine dihydrochloride], and measure the amount of NO2^-.
Into the supernatant of each one of the culture media was admixed with the same amount of Griess reagent respectively, and subjected to reaction at room temperature for 10 minutes, then the optical absorbance at 540 nm of the thus reacted culture medium was measured. While, the optical absorbance of sodium nitrite solution diluted with the culture medium was referred to as the standard value, and the amount of NO2^- formed in each one of these incubated culture media was measured. The amounts of NO2^- formed in the reference culture medium and the test culture medium were corrected by using the value of formed amount of NO2^- in the blanc culture medium.
On the basis of that the ratio of amounts of NO2^- formed in the reference culture medium and that of formed in the test culture medium is corresponding to the ratio of amount of NO formed in the reference culture medium and that of formed in the test culture medium. Thus the amount of NO2^- formed in the reference culture medium is referred to as the value of 100, and the value of amount of NO2^- formed in the test culture medium is referred to as amount of NO formed in the test culture medium.

[2] = Toxicity of compound against the cell strain RAW 264.7 (MTT); format: cell-based; conditions: mouse, raw 264.7 cells, 1 × 10^-6 M, read-out: Ratio of optical absorbance
Method: [Toxicity test (Toxicity of compound against the cell strain RAW 264.7)]
Test was conducted in accordance with the method as described in J. Immunol. Methods, Vol. 94, pp. 57-68, (1986). Cell strain RAW 264.7 derived from the macrophage of mouse was incubated similarly as in the method of Test Example 1(1). After that, MTT reagent (5 mg/ml) in 1/10 amount of the culture medium was added to the cells, and incubated for 4 hours. The supernatant of culture medium was taken off, then the cells were collected by using 1% SDS solution and the optical absorbance at 570-630 nm of the SDS solution was measured.

contact hypersensitivity = test: Contact hypersensitivity model in mouse (atopic dermatitis model); format: in vivo; conditions: po, 30 minutes before causal induction, 24 hours, read-out: Control % (intumescence of the pinna, untreated = 100); for response vs control in vivo at 3 mg/kg: 3 mg/Kg p.o.; for response vs control in vivo at 20 mg/kg: 20 mg/Kg p.o.
Method: [Contact hypersensitivity model in mouse (Atopic dermatisis model)]
Test was conducted by referring to the method as described in "HIFU (a Japanese journal of dermatology)" Vol. 35, Supplemental Issue No. 15, pp. 96-106, published on March 1993.
CBA/J strain mice of 6-8 week age were used as the test animals (6-8 mice in one group). The mouse was sensitized by coating 150 μl of 5% of picryl chloride [dissolved in a mixture of acetone with olive oil (1:4)] on the shaved portion of skin in the back of mouse. […] 24 Hours after the causal induction, the effect for inhibiting contact hypersensitivity performed by the test compounds were evaluated by referring to the action for inhibiting intumescence of the pinna as an indication. The test compound was orally administered 30 minutes before the causal induction.
The following compounds were used for the test.
1) Compounds of the Present Invention:
(Dosage: 20 mg/Kg p.o., which is 7-10 times larger amount of dosages for compounds of the present invention)
The value obtained from the sensitization test without administration of the test compound was referred to as 100, and by comparing with the values obtained from the sensitization test with administration of the test compound was referred to "% control" values.

late asthmatic response = test: Model experiment of asthma in guinea pigs (inhibition of late asthmatic response); format: in vivo, guinea pig; conditions: control 112 ± 17.8
Method: [Model experiment of asthma in guinea pigs. (Inhibition of late asthmatic response)]
Hartley strain female guinea pigs (SLC) having the body weight of about 350 g were used and 50 mg/Kg of cyclophosphamide (mfd. by Sigma Chemical Co.) was injected intraperitoneally. 2 Days after this pretreatment by injection, 1 mg of egg albumin (mfd. by Sigma Chemical Co.) and 100 mg of aluminum hydroxide (Wako Pure Chemical Industries Co., Ltd.) were injected intraperitoneally for sensitization. 3 Weeks after the sensitization, 10 μg of egg albumin and 100 mg of aluminum hydroxide were injected intraperitoneally for booster sensitization. 6 Weeks after the primary sensitization, asthma attach was induced by inhalation and exposure to egg albumin (4 mg/ml) by using a nebulizer (NE-U12: mfd. by Omron Corp.). The asthma reaction was determined by use of a body-plethysmography (using system developed by Uchida lecturer in internal department for respiratory organs at Tsukuba University; air-resist tube, respiratory amplifier and differential pressure transducer (mfd. by Nihon Koden); and osciloscope (mfd. by Iwasaki Tsushin)), so as to determine a […] of specific airway conductance (sGaw) under the condition without anesthesia. The sGaw value just before the administration of test comopound was measured and the value is referred to as 100. Test compound was suspended in 1% HPMC (hydroxymethylpropylcellulose mfd. by Shinetsu Chemical), and was administered orally 30 minutes before the exposure with the antigen. Then, sGaw value was measured in each points until 7 hours after the exposure with the antigen.

| SMILES | activity at 1 µM [1] | response vs control in vivo at 20 mg/kg (contact hypersensitivity) | further results |
| --- | --- | --- | --- |
| CSCc1cc(=O)n2ncc(-c3ccc(Sc4ccccc4)cc3)c2[nH]1 [Example 29, 4,7-dihydro-5-methylthiomethyl-7-oxo-3-(4-phenylthiophenyl)pyrazolo[1,5-a]pyrimidine] | 52.2% | – | viability at 1 µM [2]: 89.7% |
| COC(OC)c1cc(=O)n2ncc(-c3ccc(Sc4ccccc4)cc3)c2[nH]1 [Example 24, 4,7-dihydro-5-dimethoxymethyl-7-oxo-3-(4-phenylthiophenyl)pyrazolo[1,5-a]pyrimidine] | 67.3% | – | viability at 1 µM [2]: 108% |
| CC(C)(C)OCCOCc1cc(=O)n2ncc(-c3ccc(Sc4ccccc4)cc3)c2[nH]1 [Example 15, 5-(2-t-butoxyethoxymethyl)-4,7-dihydro-7-oxo-3-(4-phenylthiophenyl)pyrazolo[1,5-a]pyrimidine] | – | – | response vs control in vivo at 3 mg/kg (contact hypersensitivity): 46.3% |
| COCCOCc1cc(=O)n2ncc(-c3ccc(Sc4ccccc4)cc3)c2[nH]1 [Example 14, 4,7-dihydro-5-(2-methoxyethoxymethyl)-7-oxo-3-(4-phenylthiophenyl)pyrazolo[1,5-a]pyrimidine] | 64.4% | – | viability at 1 µM [2]: 94.2% |
| COc1cc(-c2c(-c3ccccn3)nn3c(O)cc(C)nc23)ccc1Sc1ccccc1 [(6), 7-Hydroxy-5-methyl-3-(3-methoxy-4-phenylthiophenyl)-2-(2-pyridyl)pyrazolo[1,5-a]pyrimidine] | – | 94.7% | – |
| Oc1cc(C2CC2)nc2c(-c3ccc(Sc4ccccc4)cc3)cnn12 [(1), 7-Hydroxy-5-cyclopropyl-3-(4-phenylthiophenyl)pyrazolo[1,5-a]pyrimidine] | – | 99% | – |
| COCCc1cc(=O)n2ncc(-c3ccc(Sc4ccccc4)cc3)c2[nH]1 [Example 22, 4,7-dihydro-5-(2-methoxyethyl)-7-oxo-3-(4-phenylthiophenyl)pyrazolo[1,5-a]pyrimidine] | 60.3% | – | viability at 1 µM [2]: 101% |
| Oc1cc(CCl)nc2cc(-c3ccccc3)nn12 [(4), 7-Hydroxy-5-chloromethyl-2-phenylpyrazolo[1,5-a]pyrimidine] | – | 103% | – |
| COCc1cc(=O)n2nc(COC)c(-c3ccc(Sc4ccccc4)cc3)c2[nH]1 [Example 42, 2,5-bis(methoxymethyl)-4,7-dihydro-7-oxo-3-(4-phenylthiophenyl)pyrazolo[1,5-a]-pyrimidine] | 55.4% | – | – |
| O=c1cc(COc2ccccc2)[nH]c2c(-c3ccc(Sc4ccccc4)cc3)cnn12 [Example 12, 4,7-dihydro-7-oxo-5-phenoxymethyl-3-(4-phenylthiophenyl)pyrazolo[1,5-a]pyrimidine] | 67% | – | viability at 1 µM [2]: 103% |
| C[C@]12C=CC(=O)C=C1CC[C@@H]1[C@@H]2[C@@H](O)C[C@@]2(C)[C@H]1CC[C@]2(O)C(=O)CO [Prednizolone] | – | – | AUC (4-7 hours) of sGaw reaction (late asthmatic response; 30 mg/Kg orally 30 minutes before antigen, 8 animals): 15.6 ± 3.5 |
| Oc1cc(CCl)nc2cc(-c3ccc(Sc4ccccc4)cc3)nn12 [(7), 7-Hydroxy-5-chloromethyl-2-(4-phenylthiophenyl)pyrazolo[1,5-a]pyrimidine] | – | 113% | – |
| Cc1cc(O)n2ncc(-c3ccc(Sc4ccccc4)cc3)c2n1 [(2), 7-Hydroxy-5-methyl-3-(4-phenylthiophenyl)pyrazolo[1,5-a]pyrimidine] | – | 90% | – |
| COCc1nn2c(O)ccnc2c1-c1ccc(Sc2ccccc2)cc1 [(3), 7-Hydroxy-2-methoxymethyl-3-(4-phenylthiophenyl)pyrazolo[1,5-a]pyrimidine] | – | 104% | – |
| Oc1ccnc2c(-c3ccc(Sc4ccccc4)cc3)cnn12 [(8), 7-Hydroxy-3-(4-phenylthiophenyl)pyrazolo[1,5-a]pyrimidine] | – | 100% | AUC (4-7 hours) of sGaw reaction (late asthmatic response; 39 mg/Kg (so in the source) orally 30 minutes before antigen, 3 animals): 127.9 ± 45.4 |
| Oc1ccnc2c(-c3cccc(C(F)(F)F)c3)cnn12 [(5), 7-Hydroxy-3-(3-trifluoromethylphenyl)pyrazolo [1,5-a]pyrimidine] | – | 90.4% | – |
| O=c1cc(C2CCCO2)[nH]c2c(-c3ccc(Sc4ccccc4)cc3)cnn12 (stereo not drawn) [Example 19, 4,7-dihydro-7-oxo-3-(4-phenylthiophenyl)-5-(tetrahydrofuran-2-yl)pyrazolo[1,5-a]pyrimidine] | 63.1% | – | response vs control in vivo at 3 mg/kg (contact hypersensitivity): 44.7% |
